The subject of series [1] is Staphylococcus aureus (S. aureus) 11540 strain. The series is described as follows: standard microdilution assay to determine minimum inhibitory concentrations (MICs), S. aureus. Type of series: cell-based. The method, boiled down:
(§1)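 MICs by broth microdilution in 100 μl final volume following CLSI protocols, with reference strains as quality control. Results presented as +/− relative to a 16 micrograms/mL cutoff.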

The test system of series [2] is Eschericia coli (E. coli) strain ATCC25922. The series is described as follows: standard microdilution assay to determine minimum inhibitory concentrations (MICs), E. coli. Type of series: cell-based. As to conditions: Escherichia coli. The procedure, abridged:
as §1

Series [3] in a line: Rat infusion study: clinical signs and IV plasma pharmacokinetics across infusion lengths. As to conditions: male Sprague-Dawley rats; for Clinical Signs: 4 mg/kg jugular venous infusion, listed as Compound No. 34, 4 mg/kg; for AUC(0-inf) / Cmax / half-life: male, Sprague-Dawley, rat, plasma, iv, 4 mg/kg, 4 mg/kg IV. It counts as in vivo. The text has this:
Many pyrrolocytosines, including Compound No. 34, share an acute clinical syndrome, which manifests in as a Cmax-driven hemodynamic effect and is associated with immediate clinical signs such as labored breathing. Cmax is the peak concentration a molecule reaches in the plasma, in this case directly following intravenous administration, and is expressed generally in micrograms/milliliter. The syndrome is dose-dependent, meaning that the higher the amount of drug given, the more severe the effects. This is generally considered the limiting toxicity for the effected compounds of this class. Importantly, the efficacy for the pyrrolocytosines, including Compound No. 34, is not driven by the Cmax but rather by the AUC (Area-Under-the-plasma-drug-concentration-time-Curve), which is an expression of the total body exposure to the drug and is expressed generally in micrograms*hour/milliliter. In rat studies with several pyrrolocytosines, including Compound No. 34, it has been shown that increasing the length, or duration, of the intravenous administration effectively modulates or eliminates the clinical syndrome, depresses the concentration maximum, results in a short distribution half-life but still affords drug exposures necessary for efficacy.
As an example, a study conducted by PharmOptima under study number 2017-164 with Compound No. 34, compared the clinical signs and plasma drug concentration data across several infusion lengths: 10-minutes, which is the screening length at which the acute syndrome is observed, 1-hour, 2-hour, 3-hour and 24-hour. A total of 15 male Sprague-Dawley rats (275-300 grams) were used in the study, divided evenly across the 5 dosing regimens. The route of drug administration was via jugular venous infusion, using a syringe infusion pump. Compound No. 34 was formulated in phosphate-buffered mannitol, with a starting pH=6.5.
There was a clear decrease in Cmax as infusion length was increased. The intermediate dosing groups still achieved significant AUC, or drug exposures for efficacy, and particularly with the 3 h infusion itis clear that the dose can be increased to move the AUC higher while not approaching the Cmax associated with the severe end of the acute tolerability. The 24 h infusion is particularly compelling. It indicates the concentration can be titrated to achieve steady-state drug levels for efficacy while remaining well below the Cmax associated with clinical signs. […] In the end, this translates into a generous therapeutic window.

As a reminder, the MIC is the lowest concentration that inhibits growth of the organism. A word on the AUC(0-inf): it is total exposure, with the tail of the curve extrapolated. The term Cmax denotes the peak of the concentration-time curve.

Where two headings read alike, the source gives them in different places.

For the compound `C[C@H](N)CCCc1cc(Cl)c(F)c(-c2cc3cn(-c4ccc([C@@H]5CCC[C@@H](CCSC(=N)N)N5)cc4)c(=O)nc3[nH]2)c1` [Compound 34], the MIC in series [1] and in series [2] was no more than 16 µg/mL each time. Besides, the “Clinical Signs” value in series [3] (10-min infusion) was “significant labored breathing”; in series [3] (1 h, 2 h and 3 h infusion groups), “minor signs of chewing and licking”; in series [3] (24 h infusion), “no clinical signs and none”. Also, the AUC(0-inf) in series [3] (10-min infusion) is 22000 ng·h/mL; in series [3] (1 h infusion) it was 14400 ng·h/mL; in series [3] (2 h infusion), 14400 ng·h/mL; in series [3] (3 h infusion) it was 9150 ng·h/mL; in series [3] (24 h infusion) it was 11000 ng·h/mL. For the same compound, the maximum concentration (Cmax) in series [3] (10-min infusion) came out at 23600 ng/mL; in series [3] (1 h infusion), 8890 ng/mL; in series [3] (2 h infusion) it was 8120 ng/mL; in series [3] (3 h infusion) it was 3760 ng/mL; in series [3] (24 h infusion), 560 ng/mL. Besides, the half-life in series [3] (10-min infusion, read-out: T½ (h)-alpha (converted)) is 1.01 h; in series [3] (1 h infusion, read-out: T½ (h)-alpha (converted)), 0.91 h; in series [3] (2 h infusion, read-out: T½ (h)-alpha (converted)), 1.02 h; in series [3] (3 h infusion, read-out: T½ (h)-alpha (converted)) it was 0.99 h; in series [3] (24 h infusion, read-out: T½ (h)-alpha (converted)), 1.01 h; in series [3] (first of two cells, infusion group(s) unclear (grid: 10-min), read-out: T½ (h)-terminal (converted)), 15.2 h. The half-life in series [3] (second of two cells, infusion group(s) unclear (grid: 1 h), read-out: T½ (h)-terminal (converted)) was 15.2 h.
